Assay results reported in patent publication US20160237071A1, “T-TYPE CALCIUM CHANNEL INHIBITOR” (NISSAN CHEMICAL INDUSTRIES, LTD., priority 2013, published 2016).
pIC50: −log10 of the molar value.

target: T1, Human T-type calcium channel (Cav 3.2) (Homo sapiens, UniProt O95180); test: Calcium influx inhibition assay; format: cell-based; conditions: T-type calcium channel inhibition concentration; Cav 3.2 expressing HEK293 cells, FLIPR Calcium 4 fluorescence; read-out: C50
T1 construct: Edward Perez-Reyes, University of Virginia, USA; host or cells: HEK293
T1 sequence (O95180 whole entry): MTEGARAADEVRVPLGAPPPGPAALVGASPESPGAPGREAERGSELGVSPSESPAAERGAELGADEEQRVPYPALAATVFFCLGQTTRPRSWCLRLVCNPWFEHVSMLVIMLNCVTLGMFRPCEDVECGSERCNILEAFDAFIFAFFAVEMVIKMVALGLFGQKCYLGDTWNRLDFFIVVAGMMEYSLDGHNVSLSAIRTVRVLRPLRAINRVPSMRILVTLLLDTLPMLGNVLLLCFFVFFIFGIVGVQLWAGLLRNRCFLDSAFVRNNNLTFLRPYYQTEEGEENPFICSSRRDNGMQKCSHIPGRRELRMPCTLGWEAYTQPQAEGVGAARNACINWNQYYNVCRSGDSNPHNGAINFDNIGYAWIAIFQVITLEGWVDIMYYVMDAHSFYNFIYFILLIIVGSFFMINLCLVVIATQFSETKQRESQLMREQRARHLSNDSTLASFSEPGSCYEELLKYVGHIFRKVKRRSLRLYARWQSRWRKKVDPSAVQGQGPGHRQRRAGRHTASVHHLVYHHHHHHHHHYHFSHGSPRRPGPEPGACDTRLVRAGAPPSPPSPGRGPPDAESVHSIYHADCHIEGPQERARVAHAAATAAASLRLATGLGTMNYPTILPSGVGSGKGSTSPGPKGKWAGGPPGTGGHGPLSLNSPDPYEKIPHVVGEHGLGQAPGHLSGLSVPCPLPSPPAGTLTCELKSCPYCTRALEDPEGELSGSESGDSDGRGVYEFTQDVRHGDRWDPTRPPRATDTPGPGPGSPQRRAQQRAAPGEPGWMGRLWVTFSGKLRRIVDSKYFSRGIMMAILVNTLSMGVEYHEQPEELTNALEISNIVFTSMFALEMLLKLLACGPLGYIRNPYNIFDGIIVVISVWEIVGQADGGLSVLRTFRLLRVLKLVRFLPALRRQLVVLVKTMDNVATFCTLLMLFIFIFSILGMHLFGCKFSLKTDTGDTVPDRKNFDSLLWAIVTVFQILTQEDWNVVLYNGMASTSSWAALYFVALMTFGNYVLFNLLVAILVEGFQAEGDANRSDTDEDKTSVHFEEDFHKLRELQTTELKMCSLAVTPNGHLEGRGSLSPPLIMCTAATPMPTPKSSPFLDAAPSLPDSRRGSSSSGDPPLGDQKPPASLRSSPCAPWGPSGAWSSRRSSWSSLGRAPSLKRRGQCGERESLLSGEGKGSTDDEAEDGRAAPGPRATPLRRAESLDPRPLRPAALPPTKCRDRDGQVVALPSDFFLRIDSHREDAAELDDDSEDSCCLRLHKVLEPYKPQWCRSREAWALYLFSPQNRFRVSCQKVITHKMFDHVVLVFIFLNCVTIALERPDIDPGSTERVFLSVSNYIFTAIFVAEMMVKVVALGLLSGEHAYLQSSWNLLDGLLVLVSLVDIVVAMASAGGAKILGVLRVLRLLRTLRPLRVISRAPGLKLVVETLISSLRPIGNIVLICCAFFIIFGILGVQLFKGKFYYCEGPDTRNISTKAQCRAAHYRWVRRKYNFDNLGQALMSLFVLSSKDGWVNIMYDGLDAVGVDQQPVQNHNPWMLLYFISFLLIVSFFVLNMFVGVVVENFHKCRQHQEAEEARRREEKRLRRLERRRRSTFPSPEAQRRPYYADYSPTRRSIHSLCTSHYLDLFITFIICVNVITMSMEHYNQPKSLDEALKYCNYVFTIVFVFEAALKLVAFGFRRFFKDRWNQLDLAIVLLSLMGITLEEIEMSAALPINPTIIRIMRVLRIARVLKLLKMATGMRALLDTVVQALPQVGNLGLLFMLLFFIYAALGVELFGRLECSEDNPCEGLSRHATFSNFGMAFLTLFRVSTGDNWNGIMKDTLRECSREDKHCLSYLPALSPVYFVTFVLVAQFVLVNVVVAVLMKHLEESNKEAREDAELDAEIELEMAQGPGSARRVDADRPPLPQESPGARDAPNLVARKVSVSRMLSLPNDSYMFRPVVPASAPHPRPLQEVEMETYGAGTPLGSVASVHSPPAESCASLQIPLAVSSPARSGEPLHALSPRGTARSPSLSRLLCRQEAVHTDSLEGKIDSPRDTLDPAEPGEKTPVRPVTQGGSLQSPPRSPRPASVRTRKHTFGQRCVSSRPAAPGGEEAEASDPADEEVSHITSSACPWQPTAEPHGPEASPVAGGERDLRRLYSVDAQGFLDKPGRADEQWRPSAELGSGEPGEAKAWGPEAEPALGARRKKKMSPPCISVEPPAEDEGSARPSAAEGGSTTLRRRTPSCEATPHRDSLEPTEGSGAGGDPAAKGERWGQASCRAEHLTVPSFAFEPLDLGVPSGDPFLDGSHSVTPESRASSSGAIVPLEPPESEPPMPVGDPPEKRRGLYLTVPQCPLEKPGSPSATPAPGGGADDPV
Experimental: Human T-type calcium channel (Cav 3.2) expressing HEK293 cells were obtained from Prof. Edward Perez-Reyes, University of Virginia, USA. The calcium-sensitive fluorescent dye used was FLIPR Calcium 4 Assay Kit (Molecular Devices).
To a black 96-well plate with a clear bottom coated with type I collagen, the human T-type calcium channel (Cav 3.2) expressing HEK293 cells were seeded and cultured overnight, and the culture medium was removed. A solution of the calcium-sensitive fluorescent dye was added, and the whole was incubated at 37° C. in an atmosphere of 5% carbon dioxide for 30 minutes. To the plate, a diluted solution of a compound was added, and the whole was further incubated at 37° C. in an atmosphere of 5% carbon dioxide for 30 minutes. While fluorescence was continuously analyzed from the bottom with a FlexStation 3 (Molecular Devices), a calcium solution was added. […] From the rise in the fluorescence from the base line, the inhibition percentage was calculated. The logarithms of compound concentrations were plotted with respect to the inhibition activities to obtain an IC50 value (50% inhibition concentration).

Row | Structure (SMILES) | pIC50
1 | COc1cccc2c1C(O)CN(c1nc(C)n(Cc3ccc(C(F)(F)F)s3)c(=O)n1)C2 (stereo not drawn) [8a] | 7.20
2 | COc1ccc2c(c1)CN(c1nc(C)n(Cc3ccc(C(F)(F)F)s3)c(=O)n1)CC2O (stereo not drawn) [8b] | 6.10
3 | COc1ccc2c(c1)[C@@H](O)CN(c1nc(C)n(Cc3ccc(C(F)(F)F)s3)c(=O)n1)C2 [9a] | 8.31
4 | COc1ccc2c(c1)[C@H](O)CN(c1nc(C)n(Cc3ccc(C(F)(F)F)s3)c(=O)n1)C2 [9b] | 6.89
5 | O=c1nc(N2CCc3cc(C(F)(F)F)ccc3C2)ncn1Cc1ccc(C(F)(F)F)s1 [compound 1] | 7.21
6 | COc1cc2c(cc1OC)CN(c1ncn(Cc3ccc(C(F)(F)F)s3)c(=O)n1)CC2 [compound 2] | 6.27
7 | COc1ccc2c(c1)C(O)CN(c1ncn(Cc3ccc(C(F)(F)F)s3)c(=O)n1)C2 (stereo not drawn) [compound 3] | 7.02
8 | COc1ccc2c(c1)C(O)CN(c1nc(C)n(Cc3ccc(C(F)(F)F)s3)c(=O)n1)C2 (stereo not drawn) [compound 4] | 7.70
9 | Cc1nc(N2CCc3cc(OCC(F)(F)F)ccc3C2)nc(=O)n1Cc1cnc(C(F)(F)F)s1 [compound 5] | 6.49
10 | N#Cc1ccc2c(c1)CN(c1ncn(Cc3ccc(C(F)(F)F)s3)c(=O)n1)CC2 [compound 6] | 5.74
11 | COc1ccc2c(c1)C(O)CN(c1nc(C)n(Cc3ccc(OS(=O)(=O)C(F)(F)F)nc3)c(=O)n1)C2 (stereo not drawn) [compound 10] | 6.49
12 | O=c1nc(N2CCc3cc(OC(F)F)ccc3C2)ncn1Cc1ccc(C(F)(F)F)s1 [compound 11] | 7.47
13 | O=c1nc(N2CCc3cc(OS(=O)(=O)C(F)(F)F)ccc3C2)ncn1Cc1ccc(C(F)(F)F)s1 [compound 12] | 7.27
14 | O=c1nc(N2CCc3cc(OCC(F)(F)F)ccc3C2)ncn1Cc1ccc(C(F)(F)F)s1 [compound 13] | 7.26
15 | Cc1nc(N2CCc3cc(OC(F)F)ccc3C2)nc(=O)n1Cc1ccc(C(F)(F)F)s1 [compound 14] | 7.35
16 | Cc1nc(N2Cc3ccc(OCC(F)(F)F)cc3C(O)C2)nc(=O)n1Cc1ccc(C(F)(F)F)s1 (stereo not drawn) [compound 15] | 8.00
17 | Cc1nc(N2CCc3cc(Cl)ncc3C2)nc(=O)n1Cc1ccc(C(F)(F)F)s1 [compound 16] | 6.19
18 | Cc1nc(N2CCc3nc(Cl)ccc3C2)nc(=O)n1Cc1ccc(C(F)(F)F)s1 [compound 17] | 6.46

Row | Structure (SMILES) | pIC50
19 | CCOc1ccc2c(c1)C(O)CN(c1nc(C)n(Cc3ccc(C(F)(F)F)s3)c(=O)n1)C2 (stereo not drawn) [compound 18] | 7.74
20 | Cc1cc2c(s1)CCN(c1nc(C)n(Cc3ccc(C(F)(F)F)s3)c(=O)n1)C2 [compound 19] | 6.59
21 | Cc1nc(N2CCc3sc(CO)cc3C2)nc(=O)n1Cc1ccc(C(F)(F)F)s1 [compound 20] | 6.40
22 | COc1nc2c(s1)CN(c1nc(C)n(Cc3ccc(C(F)(F)F)s3)c(=O)n1)CC2 [compound 21] | 6.44
23 | COc1ccc2c(n1)CCN(c1nc(C)n(Cc3ccc(C(F)(F)F)s3)c(=O)n1)C2 [compound 22] | 6.51
24 | Cc1nc(N2Cc3ccc(OCC(F)(F)F)cc3C(O)C2)nc(=O)n1Cc1cnc(C(F)(F)F)s1 (stereo not drawn) [compound 23] | 6.47
25 | COc1ccc2c(c1)CCN(c1nc(C)n(Cc3cnc(C(F)(F)F)s3)c(=O)n1)C2 [compound 24] | 6.03
26 | COc1ccc2c(c1)C(O)CN(c1nc(C)n(Cc3cnc(C(F)(F)F)s3)c(=O)n1)C2 (stereo not drawn) [compound 25] | 6.35
27 | COc1ccc2c(c1)C(O)CN(c1nc(C)n(Cc3ccc(F)cc3)c(=O)n1)C2 (stereo not drawn) [compound 26] | 5.52
28 | CCOC(=O)C1Cc2ccccc2CN1c1nc(C)n(Cc2ccc(C(F)(F)F)s2)c(=O)n1 (stereo not drawn) [compound 27] | 5.55
29 | Cc1nc(N2CCc3c(Cl)ccc(Cl)c3C2)nc(=O)n1Cc1ccc(C(F)(F)F)s1 [compound 28] | 6.49
30 | COc1ccc2c(c1)CCN(c1nc(C)n(Cc3ccc(C(F)(F)F)s3)c(=O)n1)CC2 [compound 29] | 7.40
31 | Cc1ccc2c(n1)CCN(c1nc(C)n(Cc3ccc(C(F)(F)F)s3)c(=O)n1)C2 [compound 30] | 5.49
32 | Cc1nc(N2CCc3nc(C4CC4)ccc3C2)nc(=O)n1Cc1ccc(C(F)(F)F)s1 [compound 31] | 6.62
33 | COc1ccc2c(c1)C(N)CN(c1nc(C)n(Cc3ccc(C(F)(F)F)s3)c(=O)n1)C2 (stereo not drawn) [compound 32] | 7.57
34 | Cc1nc(N2CCc3ccccc32)nc(=O)n1Cc1ccc(C(F)(F)F)s1 [compound 34] | 6.12
35 | COc1ccc2c(c1)C(F)CN(c1nc(C)n(Cc3ccc(C(F)(F)F)s3)c(=O)n1)C2 (stereo not drawn) [compound 35] | 7.29

The remaining lines, values ahead:

Row | pIC50 | Structure (SMILES)
36 | 6.28 | COc1ccc2c(c1)C(=O)CN(c1nc(C)n(Cc3ccc(C(F)(F)F)s3)c(=O)n1)C2 [compound 36]
37 | 6.89 | COc1ccc2c(c1)/C(=N/O)CN(c1nc(C)n(Cc3ccc(C(F)(F)F)s3)c(=O)n1)C2 [compound 37]
38 | 7.42 | Cc1nc(N2Cc3ccc(OC(C)C)cc3C(O)C2)nc(=O)n1Cc1ccc(C(F)(F)F)s1 (stereo not drawn) [compound 38]
39 | 7.12 | Cc1nc(N2Cc3ccc(OCC(C)C)cc3C(O)C2)nc(=O)n1Cc1ccc(C(F)(F)F)s1 (stereo not drawn) [compound 39]
40 | 6.60 | Cc1nc(N2CCc3cc(OCC(F)(F)F)ccc3C2)nc(=O)n1Cc1ccc(C(F)(F)F)s1 [compound 40]
41 | 7.30 | Cc1nc(N2CCc3cc(OS(=O)(=O)C(F)(F)F)ccc3C2)nc(=O)n1Cc1ccc(C(F)(F)F)s1 [compound 41]
42 | 6.54 | Cc1nc(N2Cc3ccc(O)cc3C(O)C2)nc(=O)n1Cc1ccc(C(F)(F)F)s1 (stereo not drawn) [compound 42]
43 | 6.49 | Cc1nc(N2CCc3ccc(C(F)(F)F)cc3C2)nc(=O)n1Cc1ccc(C(F)(F)F)s1 [compound 43]
44 | 6.49 | Cc1nc(N2CCc3ccccc3C2)nc(=O)n1Cc1ccc(C(F)(F)F)s1 [compound 44]
45 | 6.49 | Cc1nc(N2Cc3ccc(OCC(N)=O)cc3C(O)C2)nc(=O)n1Cc1ccc(C(F)(F)F)s1 (stereo not drawn) [compound 45]
46 | 6.44 | Cc1nc(N2Cc3ccc(OCC(F)(F)F)cc3C2)nc(=O)n1Cc1ccc(C(F)(F)F)s1 [compound 46]
47 | 7.28 | Cc1nc(N2Cc3ccc(OCC4CC4)cc3C(O)C2)nc(=O)n1Cc1ccc(C(F)(F)F)s1 (stereo not drawn) [compound 47]
48 | 5.72 | COc1ccc2c(c1)CN(c1nc(C)n(Cc3ccc(C(F)(F)F)s3)c(=O)n1)C2 [compound 48]
49 | 6.32 | COc1ccc2c(c1)CCCN(c1nc(C)n(Cc3ccc(C(F)(F)F)s3)c(=O)n1)C2 [compound 49]
50 | 6.39 | COc1ccc2c(c1OC)C(O)CN(c1nc(C)n(Cc3ccc(C(F)(F)F)s3)c(=O)n1)C2 (stereo not drawn) [compound 50]
51 | 6.47 | CCOC(=O)c1cc2c(s1)CCN(c1nc(C)n(Cc3ccc(C(F)(F)F)s3)c(=O)n1)C2 [compound 51]
52 | 6.54 | Cc1nc(N2CCc3cc(F)ccc3C2)nc(=O)n1Cc1ccc(C(F)(F)F)s1 [compound 52]
53 | 7.74 | Cc1nc(N2Cc3ccc(OC(F)F)cc3C(O)C2)nc(=O)n1Cc1ccc(C(F)(F)F)s1 (stereo not drawn) [compound 53]
54 | 7.38 | Cc1nc(N2Cc3cc4c(cc3C(O)C2)OCO4)nc(=O)n1Cc1ccc(C(F)(F)F)s1 (stereo not drawn) [compound 54]
55 | 8.19 | Cc1nc(N2CCc3c([nH]c4cc(F)ccc34)C2)nc(=O)n1Cc1ccc(C(F)(F)F)s1 [compound 57]
56 | 7.28 | Cc1nc(N2CCc3c([nH]c4cc(F)ccc34)C2)nc(=O)n1Cc1cnc(C(F)(F)F)s1 [compound 58]
57 | 6.57 | Cc1nc(N2CCn3c(nc4cc(F)ccc43)C2)nc(=O)n1Cc1ccc(C(F)(F)F)s1 [compound 59]
